From US10709697B2, “Bis-amines, compositions, and uses related to CXCR4 inhibition” (Emory University, priority 2015, dated 2020)

Experiments:
CXCR4 = biological target: T1, CXCR4 (Homo sapiens, UniProt P61073); assay: Primary binding affinity screening (competition with biotinylated TN14003)
T1 construct: endogenous in cells; host or cells: MDA-MB-231
Description: The compounds were initially screened with a binding affinity assay. […] MDA-MB-231 cells were pre-incubated with compounds at concentrations of 1, 10, 100, and 1000 nM, then incubated with biotinylated TN14003 and streptavidin-conjugated rhodamine to determine the binding efficiency of the new compounds to the CXCL12 binding domain of CXCR4. […] Thus, this screening is a semi-quantitative, first pass measure of the level of activity.
For binding affinity assay, 2×10^4 MDA-MB-231 cells in 300 μL of cell culture medium were seeded in an 8-well slide chamber 2 days before the experiments were conducted. Various concentrations of different compounds (1, 10, 100, or 1000 nM) were added to the separate wells and incubated for 10 min at room temperature, and then the cells were fixed in 4% ice-cold paraformaldehyde. The cells were rehydrated in phosphate-buffered saline (PBS). The slides were subsequently incubated for 30 min at room temperature with 0.05 μg/mL biotinylated TN14003, washed three times with PBS, and incubated in streptavidin-rhodamine (1:150 dilution; Jackson ImmunoResearch Laboratories, West Grove, Pa.) for 30 min at room temperature. Finally, the slides were washed with PBS and mounted in an anti-fade mounting solution (Molecular Probes, Eugene, Oreg.), and the samples were analyzed on a Nikon Eclipse E800 microscope.

[1] = tested on: CXCR4/CXCL12-mediated chemotaxis and invasion; assay: Matrigel invasion assay; format: cell-based; settings: for Invasion: Table 3, concentration used 100 nM; for inhibition at 0.1 µM: single concentration of 100 nM, CXCL12 as chemoattractant, FIG. 2, read-out: inhibitory rate, Matrigel invasion
Description: To model in vitro metastasis, a Matrigel® invasion assay was used as the functional assay. […] A layer of Matrigel® matrix-coated permeable support (8 μm pore diameter) separates the upper and lower chambers.

[2] = tested on: carrageenan-induced mouse paw edema; assay: In vivo suppression against carrageenan-induced paw edema; settings: for Carageenan: Table 3, mice dosed 10 mg of compound per kg; for inflammation-suppression percentage (paw edema): female C57BL/6J mice, 74 h after carrageenan challenge
Description: CXCR4 plays a role in the recruitment of inflammatory cells to sites of inflammation. Blocking CXCR4 is a therapeutic strategy in inflammatory diseases. A carrageenan-induced mouse paw edema model as an efficient model to evaluate the in vivo CXCR4 antagonistic activity for CXCR4 inhibitors.
Acute inflammation was induced by subcutaneous injection of 50 μL of λ-carrageenan (1% w/v in saline) into one of the hind paws of the female C57BL/6J mice (Jackson Laboratories); the other hind paw was injected with 50 μL of saline, which was used as a non-inflammation control. The selected compounds were dissolved in 10% DMSO and 90% of 45% (2-hydroxypropyl)-β-cyclodextrin (CD) in PBS. In the treatment group, compounds IIg, IIk, IIm and IIn were administered intraperitoneally (i.p.) at 10 mg/kg daily, while TN14003 was administered at 300 μg/kg, i.p., daily, 30 min following carrageenan challenge. The rationale for using 300 μg/kg for TN14003 was that this concentration was reported to be the minimum concentration needed to achieve the maximum efficacy of this compound in a […] metastasis animal model. See Yoon et al. CXC chemokine receptor-4 antagonist blocks both growth of primary tumor and metastasis of head and neck cancer in xenograft mouse models. Cancer Res., 67 (2007), pp. 7518-7524. Control animals received corresponding i.p. injections of the vehicle. The animals were sacrificed 74 h after carrageenan challenge and 2 h after the last injection of the selected compounds. The final paws were photographed and measured for thickness from the “palm” to the back of the paw with a caliper. These were compared to the volume of carrageenan-untreated contralateral paw to obtain the edema volume; the volume of the contralateral paw was subtracted from the volume of the carrageenan injected paw to obtain the edema volume. The inflammation-suppression percentage was calculated by comparing the drug-treated group to the control group.

[3] = tested on: carrageenan-induced mouse paw edema; assay: as above; settings: 10 mg/kg i.p. daily; paw tissue histology
[4] = effective concentration = lowest concentration with significant reduction of rhodamine fluorescence, MDA-MB-231 cells, tested at 1, 10, 100, 1000 nM

T1 sequence (P61073 whole entry): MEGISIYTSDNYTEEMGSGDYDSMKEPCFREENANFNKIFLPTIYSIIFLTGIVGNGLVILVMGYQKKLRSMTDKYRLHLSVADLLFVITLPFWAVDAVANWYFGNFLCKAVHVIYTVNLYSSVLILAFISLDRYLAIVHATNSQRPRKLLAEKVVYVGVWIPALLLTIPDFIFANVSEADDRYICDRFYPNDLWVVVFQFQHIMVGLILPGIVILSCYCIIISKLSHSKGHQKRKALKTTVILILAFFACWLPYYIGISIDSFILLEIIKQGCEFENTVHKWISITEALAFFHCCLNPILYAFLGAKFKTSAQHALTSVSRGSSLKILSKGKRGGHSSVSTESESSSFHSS

Compound	EC (CXCR4; [4]) [nM]	melting point [°C]	EC (CXCR4; Table 3) [nM]	Invasion [1] [%]	Carageenan [2] [%]	also measured
CN(Cc1ccc(CN(C)c2ccccc2)cc1)c1ccccc1 [Id, N,N′-(1,4-Phenylenebis(methylene))bis(N-methylaniline)]	1000	77 to 79	–	–	–	–
FC(F)(F)c1ccc(NCc2cccc(CNc3ccc(C(F)(F)F)cc3)n2)cc1 [2,6-Bis(4-trifluoromethylanilinomethyl)pyridine]	–	–	1	52	20.3	–
CN(Cc1cccc(CN(C)c2ccccc2)n1)c1ccccc1 [IId, N,N′-(Pyridine-2,6-diylbis(methylene))bis(N-methylaniline)]	1000	91 to 93	–	–	–	–
CCc1ccccc1NCc1cccc(CNc2ccccc2CC)n1 [2,6-Bis(2-ethylanilinomethyl)pyridine]	–	–	1	59	18.1	–
c1cc(CN2CCOCC2)nc(CN2CCOCC2)c1 [2,6-Bis(morpholinylmethyl)pyridine]	–	–	10	63	39.1	–
CCc1ccc(NCc2cccc(CNc3ccc(CC)cc3)n2)cc1 [2,6-Bis(4-ethylanilinomethyl)pyridine]	–	–	1	64	42.0	–
CN(Cc1ccc(CN(C)c2ccc(F)cc2)cc1)c1ccc(F)cc1 [Ie, N,N′-(1,4-phenylenebis(methylene))bis(4-fluoro-N-methylaniline)]	100	78 to 80	–	–	–	inhibition at 0.1 µM [1]: 66.4%
CN(Cc1ccccn1)Cc1cccc(CN(C)Cc2ccccn2)n1 [IIn, N,N′-(Pyridine-2,6-diylbis(methylene))bis(N-methyl-1-(pyridin-2-yl)methanamine)]	10	–	–	–	–	inhibition at 0.1 µM [1]: 72.6%; inflammation-suppression percentage (paw edema) ([2]; 10 mg/kg i.p. daily): 50%; mouse paw inflammation and damage in histological assay [3]: significantly attenuated
TN14003 [reference compound]	–	–	–	–	–	inflammation-suppression percentage (paw edema) ([2]; 300 μg/kg i.p. daily): 48%
COc1cccc(NCc2cccc(CNc3cccc(OC)c3)n2)c1 [2,6-Bis(3-methoxyanilinomethyl)pyridine]	–	–	100	37	20.1	–
c1ccc(NCc2ccc(CNc3ccccn3)cc2)nc1 [WZ811, reference compound]	–	–	10	90	40	–
c1cc(CN2CCCCC2)ccc1CN1CCCCC1 [Ib, 1,4-Bis(piperidin-1-ylmethyl)benzene]	10	84 to 86	–	–	–	inhibition at 0.1 µM [1]: < 50%
c1cc(CN2CCOCC2)ccc1CN1CCOCC1 [Ic, 1,4-Bis(morpholinomethyl)benzene]	>1000	113 to 115	–	–	–	–
COc1cccc(CN(C)Cc2cccc(CN(C)Cc3cccc(OC)c3)n2)c1 [IIk, N,N′-(Pyridine-2,6-diylbis(methylene))bis(1-(3-methoxyphenyl)-N-methylmethanamine)]	10	–	–	–	–	inhibition at 0.1 µM [1]: 76.7%; inflammation-suppression percentage (paw edema) ([2]; 10 mg/kg i.p. daily): 31.0%
Fc1cccc(NCc2cccc(CNc3cccc(F)c3)n2)c1 [2,6-Bis(3-fluoroanilinomethyl)pyridine]	–	–	10	50	20.3	–
CN(Cc1ccc(F)cc1)Cc1ccc(CN(C)Cc2ccc(F)cc2)cc1 [Ij, N,N′-(1,4-Phenylenebis(methylene))bis(1-(4-fluorophenyl)-N-methylmethanamine)]	>1000	80 to 82	–	–	–	–
